# How the values were obtained:
# [1] = tested on: Escherichia coli field strain; experiment: Whole bird bacteria reduction, chill tank (Example 2); type: cell-based; settings: 1.5 h chill tank
# Protocol: The trial events and experimental design used were as follows: • a) For all treatments a total of 190 birds were processed in a normal fashion. Each treatment involved use of 10 birds. • b) A warm (100° F.) bath was prepared containing 5×10^4 DelMarVa (Delaware-Maryland farm area) field Escherichia coli stain bacteria per mL. At least 200 mL of total bath fluid was provided for each bird. • c) All birds (both controls and treated) were randomly immersed into the warm bath. Both the inside and outside carcass areas were immersed to assure complete coverage. • d) Each separate chill tank water solution (normal tap water adjusted pH to 8.5, ice added to produce temperatures of <45° F.) contained 2×10^3 per mL bacteria. • e) The chill tank water solutions (at least 750 mL each) were be prepared for each disinfecting treatment, and birds were immersed for a period of 1.5 hours. • f) Each 10 minutes during the 1.5 hour chilling period, the birds were completely lifted out of solution and then reimersed in the solution. After the 1.5 hour chilling period, the birds were taken from the chill water and drained for 30 seconds, then promptly (within 5 minutes) placed into a sterile whole bird stomacher bag containing 400 mL diluent (Butterfield's Phosphate Diluent) bacteria collection. • g) Diluent (400 mL) was added to each carcass contained in a sterile stomacher bag while making sure to pour the diluent into the inside of the abdominal cavity. The carcass was rinsed inside and out with a rocking motion for one minute (ca. 35 RPM). […] After the fluids had been diluted, 0.1 mL of fluid was be placed on a MacConkey agar plate and bacteria counts determined. In cases where the goal of a 25-250 count on the plate was not achieved, another dilution and replating were conducted. • j) After all carcasses for each treatment had been dipped, water sample bacteria were determined. • k) Total bacteria per bird were calculated. […]
# [2] = tested on: biofilm-associated HPC (heterotrophic plate count) bacteria; experiment: HPC bacteria eradication in biofilm, PVC sampling pipes; type: cell-based
# Text: In another group of tests, the results of which are depicted in FIGS. 5 through 10, several bromine-based microbiocides of this invention were utilized in tests illustrating their effectiveness in eradicating or controlling Heterotrophic Plate Count bacteria i.e., a mixture of naturally-occurring pathogenic bacteria of various unidentified species. These bacteria were challenged both in the form of biofilms and in planktonic form.
# The experimental conditions utilized in these tests involved use of an apparatus consisting of three parallel transparent PVC sampling pipes. These pipes were used for collection of biofilm (i.e., sessile or surface attached) bacteria samples; one as control pipe, one for a relatively low biocide concentration and the third for a higher biocide concentration. The biocide challenge in each case was divided into three phases. First was a 14-day inoculation. Next was a 48-hour disinfection period. Finally a 2-week recovery period was provided. The biocide under test was slug-dosed and during the first hour of exposure, the concentration was adjusted to achieve the desired concentration level.
# The source of the naturally-grown heterotrophic plate count (HPC) bacteria was sediment and associated water collected from the recirculating hot water system of a hospital. […]
smiles,measurement,setting,value
"CC1(C)C(=O)N(Br)C(=O)N1Br [DBDMH, 1,3-dibromo-5,5-dimethylhydantoin]",Whole Bird Bacteria Reduction (%),[1]; 50 ppm Cl2 (equivalent),99.9999%
same,Whole Bird Bacteria Reduction (%),[1]; 100 ppm Cl2 (equivalent),99.9999%
same,Whole Bird Bacteria Reduction (%),[1]; 150 ppm Cl2 (equivalent),99.9999%
same,biofilm-associated HPC bacteria eradicated,"[2]; 0.5 ppm as bromine, within three hours",over 99%
same,biofilm-associated HPC bacteria eradicated,"[2]; 5 ppm as bromine, within twelve hours",~99.9%

# Reference: patent US7767240B2, “Microbiological control in poultry processing” (priority 2001, dated 2010)
